Reference: US10640495B2, “Heterocycle derivatives having TrkA inhibitory activity” (Shionogi & Co., Ltd., priority 2015, dated 2020)
Like-named read-outs stand apart in the source and are kept apart here. Each block holds one compound with its values, some of them ahead of it.

Molecular target: human TrkA (Homo sapiens (Human), UniProt P04629)
Experiment: Human TrkA inhibition assay (Test Example 2)
Assay type: biochemical
Protocol: Seven point five μL per well of human TrkA (PV3144, Lifetechnologies, final concentration: 1 nmol/L) suspended in the assay buffer (100 mmol/L 4-(2-hydroxyethyl)-1-piperazineethanesulfonic acid (HEPES), 10 mmol/L magnecium chloride, 0.003 vol % Brij-35, 0.004 vol % Tween20 and 1 mmol/L dithiothreitol (DTT)) was applied in a 384 well plate and the plate was pre-incubated for 15 min at room temperature with 0.4 μL of each compound (final concentration: 200 μmol/L-1 pmol/L) dissolved in DMSO. Then, fluorescent substrate (FL-peptide 27, 760424, PerkinElmer, final concentration: 1.5 μmol/L) and ATP (final concentration 500 μmol/L) dissolved in the assay buffer was added in each well. After the incubation of 120 min at 37° C., fifteen μL of termination buffer (100 mmol/L HEPES, 40 mmol/L ethylenediaminetetraacetic acid (EDTA), 10 mmol/L magnecium chloride, 0.003 vol % Brij-35, 0.004 vol % Tween20, 1 mmol/L DTT and 0.16 vol % Coating Reagent 3) was added in each well to stop the enzyme reaction. Fluorescent intensities (FI) of phosphorylated and non-phosphorylated fluorescent substrates were measured by LabChip EZReader II (Caliper LifeSciences, Inc.), and conversion ratio (CR) was calculated by the following formula-1. The CR in the well applied with DMSO alone was used as a negative control and the CR in the well without applying TrkA was used as a positive control. The inhibitory effect of each compound on TrkA phosphorylation was calculated by the following formula-2. CR (%)=(FI of phosphorylated substrate/(FI of phosphorylated substrate+FI of non-phosphorylated substrate))×100 (Formula-1) Phosphorylation inhibition (%)=(1−(CR with compound treatment−CR of positive control)/(CR of negative control−CR of positive control))×100 (Formula-2)
IC50 values (nmol/L) were determined by the logistic regression using the inhibition data in 10 points of 3-fold dilution series at a compound concentration range of 20 nmol/L to 1 pmol/L, or 10 points of 3-fold dilution series at the range of 2 μmol/L to 0.1 nmol/L, or 10 points of 3-fold dilution series at the range of 200 μmol/L to 10 nmol/L, or 15 points of 3-fold dilution series at the range of 200 μmol/L to 0.04 nmol/L.
The evaluation results of the compounds in the present invention are indicated as follows. IC50 values of 0 to 100 nM, 100 to 1000 nM and over 1000 nM were shown as “A”, “B” and “C”, respectively.

[1] = Table 153, human TrkA inhibition, read-out: IC50
[2] = human TrkA 1 nmol/L, ATP 500 μmol/L, 120 min at 37° C., read-out: IC50 values (TrkA phosphorylation inhibition)
[3] = Table 155, human TrkA inhibition, read-out: IC50
[4] = Table 154, human TrkA inhibition, read-out: IC50
[5] = Table 156, human TrkA inhibition, read-out: IC50
[6] = Table 152, human TrkA inhibition, read-out: IC50_nM
[7] = Table 157, human TrkA inhibition, read-out: IC50

Sequence of human TrkA (P04629 440-796): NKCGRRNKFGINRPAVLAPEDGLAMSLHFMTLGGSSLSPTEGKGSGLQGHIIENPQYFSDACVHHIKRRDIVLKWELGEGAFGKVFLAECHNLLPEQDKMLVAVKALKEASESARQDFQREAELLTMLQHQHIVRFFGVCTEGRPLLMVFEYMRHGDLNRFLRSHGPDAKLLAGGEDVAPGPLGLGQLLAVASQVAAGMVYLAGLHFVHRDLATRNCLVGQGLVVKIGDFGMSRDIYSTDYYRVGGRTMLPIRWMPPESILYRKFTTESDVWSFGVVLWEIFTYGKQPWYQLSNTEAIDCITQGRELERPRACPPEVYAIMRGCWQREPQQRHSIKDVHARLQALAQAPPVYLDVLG

SMILES: CNC(=O)c1cc(-c2nn(-c3ccccc3)c(NC(=O)N[C@@H]3CN(CCOC)O[C@H]3c3ccnc(F)c3)c2C)cn(C)c1=O (racemic) [Compound I-106]
IC50 [1]: < 100 nM

SMILES: CNC(=O)c1cc(-c2nn(-c3ccccc3)c(NC(=O)N[C@@H]3CN(CCOC)O[C@H]3c3ccccc3)c2C)cn(C)c1=O (racemic) [Compound I-163]
IC50 [1]: < 100 nM

SMILES: COCCN1C[C@@H](NC(=O)Nc2c(C)c(-c3ccc(N=S(C)(C)=O)cc3)nn2-c2ccccc2)[C@H](c2ccc(F)c(F)c2)O1 [Compound I-227]
IC50 [4]: < 100 nM

SMILES: COCCN1C[C@@H](NC(=O)Nc2c(C)c(-c3cnc(N4CC5CC(C4)O5)nc3)nn2-c2ccccc2)[C@H](c2cnc(F)c(F)c2)O1 [Compound I-514]
IC50 [5]: < 100 nM

SMILES: COCCN1C[C@@H](NC(=O)Nc2c(C)c(-c3cnn(C)c3)nn2C2CCC2)[C@H](c2ccc(F)c(F)c2)O1 (racemic) [Compound I-146]
IC50 [2]: 330 nM

SMILES: COCCN1C[C@@H](NC(=O)Nc2c(C)c(-c3cnc4c(c3)nc(C#N)n4C)nn2-c2ccccc2)[C@H](c2ccc(F)c(F)c2)O1 [Compound I-222]
IC50 [4]: < 100 nM

SMILES: COCCN1C[C@@H](NC(=O)Nc2c(C)c(OCC(C)(C)O)nn2-c2ccccc2)[C@H](c2ccc(F)c(F)c2)O1 (racemic) [Compound I-61]
IC50 [1]: < 100 nM

SMILES: COCCN1C[C@@H](NC(=O)Nc2c(C)c(C3=CCN(C(=O)OC(C)(C)C)CC3)nn2-c2ccccc2)[C@H](c2ccnc(F)c2)O1 (racemic) [Compound I-41]
IC50 [6]: < 100 nM

SMILES: COCCC1C[C@@H](NC(=O)Nc2c(C)c(-c3ccc(OCc4ccccc4)nc3)nn2-c2ccccc2)[C@H](c2ccccc2)O1 (stereo partly drawn) [Compound I-14]
IC50 [6]: < 100 nM

SMILES: CNC(=O)c1cc(-c2nn(-c3ccc(F)cc3)c(NC(=O)N[C@@H]3CN(CCOC)O[C@H]3c3ccc(F)c(F)c3)c2C)cnc1OC (racemic) [Compound I-183]
IC50 [4]: < 100 nM

SMILES: COCCN1C[C@@H](NC(=O)Nc2c(C)c(-c3cnc4c(c3)c(CO)nn4C)nn2-c2ccccc2)[C@H](c2cnc(F)c(F)c2)O1 (racemic) [Compound I-84]
IC50 [1]: < 100 nM

SMILES: COCCC1C[C@@H](NC(=O)Nc2c(C)c(C3=CCNCC3)nn2-c2ccccc2)[C@H](c2ccccc2)O1 (stereo partly drawn) [Compound I-21]
IC50 [6]: < 100 nM

SMILES: COCCN1C[C@@H](NC(=O)Nc2c(C)c(-c3cnc4c(c3)c(=O)n(C)n4C)nn2-c2ccccc2)[C@H](c2ccc(F)c(F)c2)O1 [Compound I-216]
IC50 [4]: < 100 nM

SMILES: CCN1C[C@@H](NC(=O)Nc2c(C)c(OCC(=O)N3CCN(C)CC3)nn2-c2ccccc2)[C@H](c2ccc(F)c(F)c2)O1 (racemic) [Compound I-649]
IC50 [7]: < 100 nM

SMILES: COCCN1C[C@@H](NC(=O)Nc2c(C)c(-c3cnn(C)c3)nn2-c2ccccc2)[C@H](c2cnc(Cl)s2)O1 (racemic) [Compound I-137]
IC50 [1]: < 100 nM

SMILES: COCCC1C[C@@H](NC(=O)Nc2c(C)c(-c3cnc4c(cnn4C)c3)nn2-c2ccccc2)[C@H](c2ccccc2)O1 (stereo partly drawn) [Compound I-98]
IC50 [1]: < 100 nM

SMILES: COCCN1C[C@@H](NC(=O)Nc2c(C)c(-c3cccc(N=S(C)(C)=O)c3)nn2-c2ccccc2)[C@H](c2ccc(F)c(F)c2)O1 (racemic) [Compound I-89]
IC50 [1]: < 100 nM

SMILES: COCCN1C[C@@H](NC(=O)Nc2c(C)c(-c3ccc(C(=O)OC(C)(C)C)cc3)nn2-c2ccccc2)[C@H](c2ccc(F)c(F)c2)O1 (racemic) [Compound I-33]
IC50 [6]: < 100 nM

SMILES: COCC[C@@H]1C[C@@H](NC(=O)Nc2c(C)c(-c3cnc4c(c3)c(=O)n(C)n4C)nn2-c2ccccc2)[C@H](c2ccc(F)c(F)c2)O1 (racemic) [Compound I-215]
IC50 [4]: < 100 nM

The remaining lines, values ahead:

IC50 [2]: 4 nM
SMILES: CCN1C[C@@H](NC(=O)Nc2c(C)c(OCC3CCN(C)CC3)nn2-c2ccccc2)[C@H](c2ccc(F)c(F)c2)O1 [Compound I-536]

IC50 [3]: < 100 nM
SMILES: COCCN1C[C@@H](NC(=O)Nc2c(C)c(-c3cnc(N4CCN(C(=O)OCc5ccccc5)CC4)nc3)nn2-c2ccccc2)[C@H](c2cc(F)nc(F)c2)O1 (racemic) [Compound I-370]

IC50 [2]: 0.52 nM
SMILES: COCCN1C[C@@H](NC(=O)Nc2c(C)c(-c3cnc(OC)c(CN(C)C)c3)nn2-c2ccccc2)[C@H](c2ccc(F)c(F)c2)O1 [Compound I-639]

IC50 [5]: < 100 nM
SMILES: COCCN1C[C@@H](NC(=O)Nc2c(C)c(C)nn2-c2ccccc2)[C@H](c2ccc(F)c(F)c2)O1 [Compound I-518]

IC50 [3]: < 100 nM
SMILES: COCCN1C[C@@H](NC(=O)Nc2c(C)c(-c3cnc4c(c3)CCC4O)nn2-c2ccccc2)[C@H](c2ccnc(F)c2)O1 (stereo partly drawn) [Compound I-353]

IC50 [7]: < 100 nM
SMILES: CCN1C[C@@H](NC(=O)Nc2c(C)c(OCC3CNC(=O)O3)nn2-c2ccccc2)[C@H](c2ccc(F)c(F)c2)O1 (stereo partly drawn) [Compound I-675]

IC50 [5]: < 100 nM
SMILES: COCCN1C[C@@H](NC(=O)Nc2c(C)c(C)nn2-c2ccccc2)[C@H](c2cnc(F)c(F)c2)O1 [Compound I-520]

IC50 [3]: < 100 nM
SMILES: COCCN1C[C@@H](NC(=O)Nc2c(C)c(-c3cnc(C4[C@@H]5CC[C@H]4COC5)nc3)nn2-c2ccccc2)[C@H](c2ccnc(F)c2)O1 (mixture of isomers) [Compound I-438]

IC50 [7]: < 100 nM
SMILES: CCN1C[C@@H](NC(=O)Nc2c(C)c(OCC3CN(C)C3)nn2-c2ccccc2)[C@H](c2ccc(F)c(F)c2)O1 (racemic) [Compound I-658]

IC50 [2]: 3.2 nM
SMILES: COCCN1C[C@@H](NC(=O)Nc2c(C)c(-c3cnc4ncn(CC(F)(F)F)c4c3)nn2-c2ccccc2)[C@H](c2ccnc(F)c2)O1 (racemic) [Compound I-241]

IC50 [5]: < 100 nM
SMILES: COCC[C@@H]1C[C@@H](NC(=O)Nc2c(C)c(-c3cnc(N4CC(OC)C4)nc3)nn2-c2ccccc2)[C@H](c2ccnc(F)c2)O1 [Compound I-553]

IC50 [2]: 1.2 nM
SMILES: COCCN1C[C@@H](NC(=O)Nc2c(C)c(-c3ccc(CN=S(C)(C)=O)cc3)nn2-c2ccccc2)[C@H](c2ccc(F)c(F)c2)O1 [Compound I-332]

IC50 [5]: < 100 nM
SMILES: CNC(=O)c1cc(-c2nn(-c3ccccc3)c(NC(=O)N[C@@H]3CN(CC(F)(F)F)O[C@H]3c3ccc(F)c(F)c3)c2C)cnc1OC (racemic) [Compound I-571]

IC50 [2]: 17 nM
SMILES: COCCN1C[C@@H](NC(=O)Nc2c(C)c(N3Cc4cnn(C)c4C3)nn2-c2ccccc2)[C@H](c2ccnc(F)c2)O1 (racemic) [Compound I-244]

IC50 [3]: < 100 nM
SMILES: COCCN1C[C@@H](NC(=O)Nc2c(C)c(OCc3cccnc3)nn2-c2ccccc2)[C@H](c2ccnc(F)c2)O1 (racemic) [Compound I-455]

IC50 [5]: < 100 nM
SMILES: CCOc1nn(-c2ccccc2)c(NC(=O)N[C@@H]2CN(CC)O[C@H]2c2ccc(F)c(F)c2)c1C (racemic) [Compound I-542]

IC50 [3]: < 100 nM
SMILES: COCCN1C[C@@H](NC(=O)Nc2c(C)c(-c3cnc(N4CC5(CCOC5)C4)nc3)nn2-c2ccccc2)[C@H](c2ccnc(F)c2)O1 (racemic) [Compound I-483]

IC50 [3]: 100 to 1000 nM
SMILES: COCC[C@@H]1C[C@@H](NC(=O)Nc2c(C)c(-c3cnn(C)c3)nn2-c2ccccn2)[C@H](c2ccc(F)c(F)c2)O1 (racemic) [Compound I-448]

IC50 [3]: < 100 nM
SMILES: CCC(O)(CC)c1cc(-c2nn(-c3ccccc3)c(NC(=O)N[C@@H]3CN(CCOC)O[C@H]3c3ccnc(F)c3)c2C)cnc1OC (racemic) [Compound I-354]

IC50 [4]: < 100 nM
SMILES: COCCN1C[C@@H](NC(=O)Nc2c(C)c(-c3cnc(OC)c(C(=O)NOC)c3)nn2-c2ccccc2)[C@H](c2ccnc(F)c2)O1 (racemic) [Compound I-260]

IC50 [3]: < 100 nM
SMILES: COCCN1C[C@@H](NC(=O)Nc2c(C)c(OCC3COC3)nn2-c2ccccc2)[C@H](c2ccnc(F)c2)O1 (racemic) [Compound I-503]

IC50 [7]: < 100 nM
SMILES: COCCN1C[C@@H](NC(=O)Nc2c(C)c(-c3cnc4nc(C)oc4c3)nn2-c2ccccc2)[C@H](c2ccnc(F)c2)O1 (racemic) [Compound I-616]

IC50 [7]: < 100 nM
SMILES: COCCN1C[C@@H](NC(=O)Nc2c(C)c(OCC(O)CO)nn2-c2ccccc2)[C@H](c2ccc(F)c(F)c2)O1 (stereo partly drawn) [Compound I-615]

IC50 [3]: > 1000 nM
SMILES: COCCN1C[C@@H](NC(=O)Nc2c(C)c(-c3cnn(C)c3)nn2CCN(C)C)[C@H](c2ccc(F)c(F)c2)O1 [Compound I-494]

IC50 [5]: < 100 nM
SMILES: COCCN1C[C@@H](NC(=O)Nc2c(C)c(-c3cnnc(OC)c3)nn2-c2ccccc2)[C@H](c2ccnc(F)c2)O1 (racemic) [Compound I-515]

IC50 [3]: < 100 nM
SMILES: COCCN1C[C@@H](NC(=O)Nc2c(C)c(-c3cnc(N4CC5(CCC5)C4)nc3)nn2-c2ccccc2)[C@H](c2ccnc(F)c2)O1 (racemic) [Compound I-485]
